Reference: patent US20160177395A1, “BIOMARKERS FOR THE PREDICTION OF RENAL INJURY” (priority 2007, published 2016)
Values joined by “and” are separate entries in the source; they are usually repeats but may differ in a detail not shown here. Equal values may be shown once.

Key:
[1] = test system: Sprague-Dawley Crl:CD(SD) rats; settings: rat, in vivo;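 note: control rats received saline intraperitoneally, and the organs examined were adrenals, brain, kidneys, liver, spleen and thymus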
[2] = test system: kidney tissues of treated or untreated rats; experiment: Real-time qRT-PCR of signature amplicons, validation stage, labeled and un-labeled samples (Table 23); settings: for AI045075_DB71_seg6 normalized qRT-PCR expression (Interferon stimulated exonuclease 20 (ISG20) transcript) / H31883_DB71_seg13 normalized qRT-PCR expression (Cyclin-G1 (CCNG1) transcript) / MUSCYCG1R_DB81_seg19-20 normalized qRT-PCR expression / W41270_DB81_seg11 normalized qRT-PCR expression (tumor necrosis factor receptor superfamily, member 12a transcript) / W64472_DB81_seg2 normalized qRT-PCR expression (Interferon stimulated exonuclease 20 (ISG20) transcript) / W83813_DB81_seg27 normalized qRT-PCR expression: labeled samples, listed as ValpA
In short: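 Rat kidney RNA, labeled and un-labeled samples, run over seven plates; two amplicons per signature gene (wild-type and splice variant). Values normalized to housekeeping genes, then per plate and amplicon by geometric mean of ratios against a shuffled normalization plate (outliers removed), then scaled.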

[3] = day1, kidney of individual male/female rats
[4] = day5, kidney of individual male/female rats
[5] = day28, kidney of individual male/female rats

## CCCC(CCC)C(=O)O [Valproic acid]
[1]
  Clinical pathology: Slightly lower total protein and Albumin values were found in males
  Histopathology / renal damage: No renal damage was found
  Water consumption: Increase in Valproic acid treated females
  Water consumption, males: Sight decrease during the last week
[2]; [3]
  AI045075_DB71_seg6 normalized qRT-PCR expression (Interferon stimulated exonuclease 20 (ISG20) transcript): 1.006 and 1.436 and 2.189 and 0.983 and 1.098 and 1.522
  H31883_DB71_seg13 normalized qRT-PCR expression (Cyclin-G1 (CCNG1) transcript): 1.488 and 1.506 and 0.999 and 0.721 and 1.041
  MUSCYCG1R_DB81_seg19-20 normalized qRT-PCR expression: 2.289 and 1.581 and 1.842 and 1.929 and 0.637 and 0.9
  W41270_DB81_seg11 normalized qRT-PCR expression (tumor necrosis factor receptor superfamily, member 12a transcript): 1.134 and 0.939 and 1.405 and 1.225 and 0.547 and 1.544
  W64472_DB81_seg2 normalized qRT-PCR expression (Interferon stimulated exonuclease 20 (ISG20) transcript): 1.082 and 1.123 and 1.887 and 0.995 and 1.092 and 1.596
  W83813_DB81_seg27 normalized qRT-PCR expression: 1.179 and 0.912 and 1.495 and 1.13 and 0.818 and 1.366
[2]; [4]
  AI045075_DB71_seg6 normalized qRT-PCR expression (Interferon stimulated exonuclease 20 (ISG20) transcript): 1.017 and 1.145 and 0.997 and 0.883 and 1.052 and 0.877
  H31883_DB71_seg13 normalized qRT-PCR expression (Cyclin-G1 (CCNG1) transcript): 0.846 and 0.85 and 0.975 and 0.791 and 0.694 and 1.082
  MUSCYCG1R_DB81_seg19-20 normalized qRT-PCR expression: 1.019 and 1.509 and 1.372 and 0.94 and 1.425 and 1.585
  W41270_DB81_seg11 normalized qRT-PCR expression (tumor necrosis factor receptor superfamily, member 12a transcript): 0.631 and 1.428 and 1.002 and 0.617 and 0.997
  W64472_DB81_seg2 normalized qRT-PCR expression (Interferon stimulated exonuclease 20 (ISG20) transcript): 0.92 and 1.226 and 1.169 and 0.702 and 0.812 and 0.894
  W83813_DB81_seg27 normalized qRT-PCR expression: 0.778 and 1.17 and 0.876 and 0.926 and 1.146 and 0.992
[2]; [5]
  AI045075_DB71_seg6 normalized qRT-PCR expression (Interferon stimulated exonuclease 20 (ISG20) transcript): 0.696 and 0.906 and 0.669 and 0.822 and 0.77 and 0.719
  H31883_DB71_seg13 normalized qRT-PCR expression (Cyclin-G1 (CCNG1) transcript): 0.732 and 0.774 and 0.713 and 0.872 and 0.57 and 0.979
  MUSCYCG1R_DB81_seg19-20 normalized qRT-PCR expression: 0.588 and 1.731 and 0.589 and 1.171 and 1.037 and 0.52
  W41270_DB81_seg11 normalized qRT-PCR expression (tumor necrosis factor receptor superfamily, member 12a transcript): 0.543 and 0.95 and 0.459 and 1.044 and 0.587 and 1.011
  W64472_DB81_seg2 normalized qRT-PCR expression (Interferon stimulated exonuclease 20 (ISG20) transcript): 1.085 and 0.788 and 0.965 and 1.51 and 0.478 and 0.991
  W83813_DB81_seg27 normalized qRT-PCR expression: 0.493 and 1.254 and 0.46 and 0.875 and 0.761 and 1.208
[2]; rat, in vivo
  Label: true label (Normal/Toxic), known renal toxic effect: Normal
